Laboratory results from patent publication US20260193271A1, “PAN-KRAS INHIBITOR COMPOUND” (ADLAI NORTYE BIOPHARMA CO., LTD., priority 2022, published 2026).

Tests used:
SW480 (G12V) = test: In vitro cell proliferation inhibition test (CellTiter-Glo), SW480; type: cell-based; settings: SW480 colon cell line, KRAS (p.G12V), 72 h co-incubation
In short: (§1)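 IC50 was derived by four-parameter fitting of normalized CellTiter-Glo signals. These were measured after 72 h co-incubation with compound at 10 concentrations, 3-fold serial, final maximum 10 μM. Plating was 1000-5000 cells/well, adjusted to growth rate, with overnight attachment at 37 °C, 5% CO2.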

AsPC-1 (G12D) = test: In vitro cell proliferation inhibition test (CellTiter-Glo), AsPC-1; type: cell-based; settings: KRAS (p.G12D), 72 h co-incubation
In short: as §1

[1] = Homo sapiens, ASPC1, AsPC-1 pancreas cell line

Molecule	IC50 (SW480 (G12V); Homo sapiens)	IC50 (AsPC-1 (G12D); [1])	IC50 (SW480 (G12V))	IC50 (AsPC-1 (G12D); AsPC-1 pancreas cell line)
CCn1c(-c2cc(-c3cc([C@H]4CN(C)CCO4)on3)cnc2[C@H](C)OC)c2c3cc(ccc31)-c1csc(n1)C[C@H](NC(=O)[C@H]1[C@H](C)[C@@H]1C)C(=O)N1CCC[C@H](N1)C(=O)OCC(C)(C)C2 (atropisomer, axis not shown) [Compound 26, (1r,2R,3S)-N-((6^3S,4S,Z)-1^1-ethyl-1^2-(2-((S)-1-methoxyethyl)-5-(5-((R)-4-methylmorpholin-2-yl)isoxazol-3-yl)pyridin-3-yl)-10,10-dimethyl-5,7-dioxo-6^1,6^2,6^3,6^4,6^5,6^6-hexahydro-1^1H-8-oxa-2(4,2)-thiazola-1(5,3)-indola-6(1,3)-pyridazinacycloundecaphane-4-yl)-2,3-dimethylcyclopropane-1-carboxamide]	2.5 nM	10 nM	–	–
CCn1c(-c2cc(-c3ccc(CN4CCN(C)CC4)cc3)cnc2[C@H](C)OC)c2c3cc(ccc31)-c1csc(n1)C[C@H](NC(=O)[C@H]1C[C@@H]1C)C(=O)N1CCC[C@H](N1)C(=O)OCC(C)(C)C2 (atropisomer, axis not shown) [Compound 8, (1S,2S)-N-((6^3S,4S,Z)-1^1-ethyl-1^2-(2-((S)-1-methoxyethyl)-5-(4-((4-methylpiperazin-1-yl)methyl)phenyl)pyridin-3-yl)-10,10-dimethyl-5,7-dioxo-6^1,6^2,6^3,6^4,6^5,6^6-hexahydro-1^1H-8-oxa-2(4,2)-thiazola-1(5,3)-indola-6(1,3)-pyridazinacycloundecaphane-4-yl)-2-methylcyclopropane-1-carboxamide]	1.4 nM	0.7 nM	–	–
CCn1c(-c2cc(-c3cccc(CN4CCOCC4)c3)cnc2[C@H](C)OC)c2c3cc(ccc31)-c1csc(n1)C[C@H](NC(=O)[C@H]1C[C@@H]1C)C(=O)N1CCC[C@H](N1)C(=O)OCC(C)(C)C2 (atropisomer, axis not shown) [Compound 9, (1S,2S)-N-((6^3S,4S,Z)-1^1-ethyl-1^2-(2-((S)-1-methoxyethyl)-5-(3-(morpholinomethyl)phenyl)pyridin-3-yl)-10,10-dimethyl-5,7-dioxo-6^1,6^2,6^3,6^4,6^5,6^6-hexahydro-1^1H-8-oxa-2(4,2)-thiazola-1(5,3)-indola-6(1,3)-pyridazinacycloundecaphane-4-yl)-2-methylcyclopropane-1-carboxamide]	18 nM	3.5 nM	–	–
(1r,2R,3S)-N-((6^3S,4S,Z)-1^1-ethyl-1^2-(2-((S)-1-methoxyethyl)-5-(1-(1-methylazetidin-3-yl)-1H-pyrazol-4-yl)pyridin-3-yl)-10,10-dimethyl-5,7-dioxo-6^1,6^2,6^3,6^4,6^5,6^6-hexahydro-1^1H-8-oxa-2(4,2)-thiazola-1(5,3)-indola-6(1,3)-pyridazinacycloundecaphane-4-yl)-2,3-dimethylcyclopropane-1-carboxamide [Compound 17′]	–	–	85 nM	697 nM
CCn1c(-c2cc(-c3cccc(CN(C)C)c3)cnc2[C@H](C)OC)c2c3cc(ccc31)-c1csc(n1)C[C@H](NC(=O)[C@H]1[C@H](C)[C@@H]1C)C(=O)N1CCC[C@H](N1)C(=O)OCC(C)(C)C2 (atropisomer, axis not shown) [Compound 4, (1r,2R,3S)-N-((6^3S,4S,Z)-1^2-(5-(3-((dimethylamino)methyl)phenyl)-2-((S)-1-methoxyethyl)pyridin-3-yl)-1^1-ethyl-10,10-dimethyl-5,7-dioxo-6^1,6^2,6^3,6^4,6^5,6^6-hexahydro-1^1H-8-oxa-2(4,2)-thiazola-1(5,3)-indola-6(1,3)-pyridazinacycloundecaphane-4-yl)-2,3-dimethylcyclopropane-1-carboxamide]	1.6 nM	2.6 nM	–	–
CCn1c(-c2cc(-c3cc(C4(C)CN(C)C4)on3)cnc2[C@H](C)OC)c2c3cc(ccc31)-c1csc(n1)C[C@H](NC(=O)[C@H]1[C@H](C)[C@@H]1C)C(=O)N1CCC[C@H](N1)C(=O)OCC(C)(C)C2 (atropisomer, axis not shown) [Compound 34, (1r,2R,3S)-N-((6^3S,4S,Z)-1^2-(5-(5-(1,3-dimethylazetidin-3-yl)isoxazol-3-yl)-2-((S)-1-methoxyethyl)pyridin-3-yl)-1^1-ethyl-10,10-dimethyl-5,7-dioxo-6^1,6^2,6^3,6^4,6^5,6^6-hexahydro-1^1H-8-oxa-2(4,2)-thiazola-1(5,3)-indola-6(1,3)-pyridazinacycloundecaphane-4-yl)-2,3-dimethylcyclopropane-1-carboxamide]	0.17 nM	0.16 nM	–	–
CCn1c(-c2cc(-c3ccc(CN4CCOCC4)cc3)cnc2[C@H](C)OC)c2c3cc(ccc31)-c1csc(n1)C[C@H](NC(=O)[C@H]1[C@H](C)[C@@H]1C)C(=O)N1CCC[C@H](N1)C(=O)OCC(C)(C)C2 (atropisomer, axis not shown) [Compound 1, (1r,2R,3S)-N-((6^3S,4S,Z)-1^1-ethyl-1^2-(2-((S)-1-methoxyethyl)-5-(4-(morpholinomethyl)phenyl)pyridin-3-yl)-10,10-dimethyl-5,7-dioxo-6^1,6^2,6^3,6^4,6^5,6^6-hexahydro-1^1H-8-oxa-2(4,2)-thiazola-1(5,3)-indola-6(1,3)-pyridazinacycloundecaphane-4-yl)-2,3-dimethylcyclopropane-1-carboxamide]	1.3 nM	1.1 nM	–	–
CCn1c(-c2cc(-c3cnn(CC4CCCN4C)c3)cnc2C(C)OC)c2c3cc(ccc31)-c1csc(n1)CC(NC(=O)C1C(C)C1C)C(=O)N1CCCC(N1)C(=O)OCC(C)(C)C2 [Compound 62, (1r,2R,3S)-N-((6^3S,4S,Z)-1^1-ethyl-1^2-(2-((S)-1-methoxyethyl)-5-(1-(((R)-1-methylpyrrolidin-2-yl)methyl)-1H-pyrazol-4-yl)pyridin-3-yl)-10,10-dimethyl-5,7-dioxo-6^1,6^2,6^3,6^4,6^5,6^6-hexahydro-1^1H-8-oxa-2(4,2)-thiazola-1(5,3)-indola-6(1,3)-pyridazinacycloundecaphane-4-yl)-2,3-dimethylcyclopropane-1-carboxamide]	–	–	3.9 nM	0.54 nM
CCn1c(-c2cc(-c3cc(CNC)on3)cnc2[C@H](C)OC)c2c3cc(ccc31)-c1csc(n1)C[C@H](NC(=O)[C@H]1C[C@@H]1C)C(=O)N1CCC[C@H](N1)C(=O)OCC(C)(C)C2 (atropisomer, axis not shown) [Compound 23, (1S,2S)-N-((6^3S,4S,Z)-1^1-ethyl-1^2-(2-((S)-1-methoxyethyl)-5-(5-((methylamino)methyl)isoxazol-3-yl)pyridin-3-yl)-10,10-dimethyl-5,7-dioxo-6^1,6^2,6^3,6^4,6^5,6^6-hexahydro-1^1H-8-oxa-2(4,2)-thiazola-1(5,3)-indola-6(1,3)-pyridazinacycloundecaphane-4-yl)-2-methylcyclopropane-1-carboxamide]	117 nM	42 nM	–	–
CCn1c(-c2cc(-c3cnn([C@@H]4CCN(C)C4)c3)cnc2[C@H](C)OC)c2c3cc(ccc31)-c1csc(n1)C[C@H](NC(=O)[C@H]1C[C@@H]1C)C(=O)N1CCC[C@H](N1)C(=O)OCC(C)(C)C2 (atropisomer, axis not shown) [Compound 16, (1S,2S)-N-((6^3S,4S,Z)-1^1-ethyl-1^2-(2-((S)-1-methoxyethyl)-5-(1-((R)-1-methylpyrrolidin-3-yl)-1H-pyrazol-4-yl)pyridin-3-yl)-10,10-dimethyl-5,7-dioxo-6^1,6^2,6^3,6^4,6^5,6^6-hexahydro-1^1H-8-oxa-2(4,2)-thiazola-1(5,3)-indola-6(1,3)-pyridazinacycloundecaphane-4-yl)-2-methylcyclopropane-1-carboxamide]	7.9 nM	1.6 nM	–	–
